Assay results: patent US8389523B2, “Substituted quinoxaline and an agrochemical composition thereof” (Kumiai Chemical Industry Co., Ltd., priority 2007, dated 2013)

Legend:
Type in all cases: in vivo
Design in all cases: scale not given here
[1] = system: Echinochloa oryzicola Vasing; assay: Herbicidal effects in paddy field soil treatment (Test Example 1); conditions: for Herbicidal effects index, Echinochloa oryzicola Vasing: paddy field soil treatment, 1000 g of the active ingredient per hectare, wettable powder added dropwise on water surface, 21st day after treatment
Procedure, shortened: (§1)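 Sow seeds in puddled, leveled paddy soil; waterlog to 3 cm depth. On the following day apply water-diluted wettable powder onto the water surface (1000 g a.i./ha). Grow in greenhouse and assess herbicidal effect at day 21.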

[2] = system: Monochoria vaginalis (Burm. f.) Presl var. plantaginea (Roxb.) Solms-Laub.; assay: as above; conditions: for Herbicidal effects index, Monochoria vaginalis (Burm. f.) Presl var. plantaginea (Roxb.) Solms-Laub.: paddy field soil treatment, 1000 g of the active ingredient per hectare, wettable powder added dropwise on water surface, 21st day after treatment
Procedure, shortened: as §1

[3] = system: Scirpus juncoides Roxb. var. ohwianus. T. Koyama; assay: as above; conditions: for Herbicidal effects index, Scirpus juncoides Roxb. var. ohwianus. T. Koyama: paddy field soil treatment, 1000 g of the active ingredient per hectare, wettable powder added dropwise on water surface, 21st day after treatment
Procedure, shortened: as §1

[4] = system: Abutilon theophrasti medicus; assay: Herbicidal effects in upland field soil treatment (Test Example 2); conditions: 1000 g active ingredient per hectare, 21st day after treatment, criteria of Table 138
Procedure, shortened: (§2)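 Upland soil, seeds sown and covered → diluted WP sprayed uniformly onto soil surface (1000 L/ha; 1000 g a.i./ha) → greenhouse → effect scored day 21.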

[5] = system: Amaranthus viridis L.; assay: as above; conditions: 1000 g active ingredient per hectare, 21st day after treatment, criteria of Table 138
Procedure, shortened: as §2

[6] = system: Abutilon theophrasti medicus; assay: Herbicidal effects in upland field foliar treatment (Test Example 3); conditions: criteria of Table 138; for herbicidal effects on Abutilon theophrasti medicus: 1000 g of the active ingredient per hectare, 14th day after the treatment, wettable powder; for herbicidal effect (index) on Abutilon theophrasti medicus: 1000 g active ingredient per hectare, 14th day after treatment
Procedure, shortened: (§3)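 Seeds sown in upland soil, grown 2 weeks in greenhouse; whole-plant overhead spray of diluted wettable powder at 1000 g a.i./ha (1000 L/ha); kept in greenhouse; effects graded by criteria at 14 d.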

[7] = system: Amaranthus viridis L.; assay: as above; conditions: criteria of Table 138; for herbicidal effects on Amaranthus viridis L.: 1000 g of the active ingredient per hectare, 14th day after the treatment, wettable powder; for herbicidal effect (index) on Amaranthus viridis L.: 1000 g active ingredient per hectare, 14th day after treatment
Procedure, shortened: as §3

[8] = system: Echinochloa crus-galli (L.) P. Beauv. var. crus-galli; assay: as above; conditions: criteria of Table 138; for herbicidal effects on Echinochloa crus-galli (L.) P. Beauv. var. crus-galli: 1000 g of the active ingredient per hectare, 14th day after the treatment, wettable powder; for herbicidal effect (index) on Echinochloa crus-galli (L.) P. Beauv. var. crus-galli: 1000 g active ingredient per hectare, 14th day after treatment
Procedure, shortened: as §3

[9] = paddy field soil treatment (Test Example 1), criteria of Table 138

Row | Structure (SMILES) | Herbicidal effects index, Echinochloa oryzicola Vasing [1] | Herbicidal effects index, Monochoria vaginalis (Burm. f.) Presl var. plantaginea (Roxb.) Solms-Laub. [2] | Herbicidal effects index, Scirpus juncoides Roxb. var. ohwianus. T. Koyama [3] | herbicidal effect (index) on Abutilon theophrasti medicus [4] | herbicidal effect (index) on Amaranthus viridis L. [5] | herbicidal effects on Abutilon theophrasti medicus [6] | herbicidal effects on Amaranthus viridis L. [7] | herbicidal effects on Echinochloa crus-galli (L.) P. Beauv. var. crus-galli [8] | herbicidal effect (index) on Abutilon theophrasti medicus [6] | herbicidal effect (index) on Amaranthus viridis L. [7] | herbicidal effect (index) on Echinochloa crus-galli (L.) P. Beauv. var. crus-galli [8] | herbicidal effect (index) on Echinochloa oryzicola Vasing [1, 9] | herbicidal effect (index) on Monochoria vaginalis (Burm. f.) Presl var. plantaginea (Roxb.) Solms-Laub. [2, 9] | herbicidal effect (index) on Scirpus juncoides Roxb. var. ohwianus. T. Koyama [3, 9]
1 | O=C1CCCC(O)=C1C(=O)c1nc2cccnc2n(Cc2ccccc2Cl)c1=O [III-111] | 5 | 5 | 5 | 5 | 5 | 5 | 5 | 5 | – | – | – | – | – | –
2 | O=C1CCCC(O)=C1C(=O)c1nc2cccnc2n(-c2ccccc2C(F)(F)F)c1=O [IV-34] | 5 | 5 | 5 | 5 | 5 | 5 | 5 | 5 | – | – | – | – | – | –
3 | O=C1CCCC(O)=C1C(=O)c1nc2cccnc2n(-c2cccc(F)c2)c1=O [IV-7] | 5 | 5 | 5 | 5 | 5 | 5 | 5 | 5 | – | – | – | – | – | –
4 | O=C1CCCC(O)=C1C(=O)c1nc2ccccc2n(C2CC2)c1=O [Compound I-14] | 4 | 5 | 5 | 5 | 5 | – | – | – | 5 | 5 | 4 | – | – | –
5 | O=C1CCCC(O)=C1C(=O)c1nc2ccccc2n(-c2ccccc2F)c1=O [II-6] | 5 | 5 | 5 | 5 | 5 | – | – | – | 5 | 5 | 5 | – | – | –
6 | O=C1CCCC=C1C(=O)c1nc2ccccc2n(-c2ccccc2[N+](=O)[O-])c1=O [II-129] | 5 | 5 | 5 | 5 | 5 | 5 | 5 | 5 | – | – | – | – | – | –
7 | CC1(C)CCC(=O)C(C(=O)c2nc3cccnc3n(-c3ccccc3)c2=O)=C1O [IV-2] | 5 | 5 | 5 | 5 | 5 | 5 | 5 | 5 | – | – | – | – | – | –
8 | O=C1CCCC(O)=C1C(=O)c1nc2ccccc2n(-c2ccc3c(c2)COC3)c1=O [II-224] | 4 | 5 | 5 | 5 | 5 | 5 | 5 | 5 | – | – | – | – | – | –
9 | CC(=O)Cn1c(=O)c(C(=O)C2=C(O)CCCC2=O)nc2ccccc21 [Compound I-94] | 5 | 5 | 5 | 5 | 4 | – | – | – | 5 | 5 | 5 | – | – | –
10 | O=C1CCCC(O)=C1C(=O)c1nc2cccnc2n(COCC(F)(F)F)c1=O [III-59] | 5 | 5 | 5 | 5 | 5 | 5 | 5 | 5 | – | – | – | – | – | –
11 | Cn1c(=O)c(C(=O)C2=C(O)CCCC2=O)nc2cccc(Cl)c21 [I-229] | 4 | 5 | 5 | 5 | 5 | – | – | – | 5 | 5 | 4 | – | – | –
12 | O=C1CCCC(O)=C1C(=O)c1cnccn1 [comparative compound A, reference compound] | – | – | – | 1 | 0 | 2 | 1 | 0 | – | – | – | 2 | 0 | 0
13 | Cc1ccc(-n2c(=O)c(C(=O)C3=C(O)CCCC3=O)nc3ccccc32)c(F)c1 [II-212] | 5 | 5 | 5 | 5 | 5 | 5 | 5 | 5 | – | – | – | – | – | –
14 | COc1ccc(-n2c(=O)c(C(=O)C3=C(O)C(C)(C)CCC3=O)nc3ccccc32)cc1 [II-63] | 5 | 5 | 5 | 5 | 5 | 4 | 5 | 5 | – | – | – | – | – | –
15 | CC(CCn1c(=O)c(C(=O)C2=C(O)CCCC2=O)nc2cccnc21)=C(F)F [III-232] | 5 | 5 | 5 | 5 | 5 | 5 | 5 | 5 | – | – | – | – | – | –
16 | Cc1nc(-n2c(=O)c(C(=O)C3=C(O)CCCC3=O)nc3ccccc32)no1 [I-163] | 4 | 5 | 5 | 5 | 5 | – | – | – | 5 | 5 | 4 | – | – | –
17 | COCCn1c(=O)c(C(=O)C2=C(O)CCCC2=O)nc2cccnc21 [III-88] | 5 | 5 | 4 | 5 | 5 | 5 | 5 | 5 | – | – | – | – | – | –
18 | O=C1CCCC(O)=C1C(=O)c1nc2cc(F)ccc2n(-c2ccc3c(c2)OCO3)c1=O [II-239] | 5 | 5 | 5 | 5 | 5 | 5 | 5 | 4 | – | – | – | – | – | –
